Measured values from patent US11306096B2, “4,6 dihydropyrrolo [3,4-C] pyrazole-5 (1H)-carbonitrile derivates for treating cancer” (MISSION THERAPEUTICS LIMITED, priority 2016, dated 2022).

Each molecule was assayed against USP7 (Homo sapiens (Human), UniProt Q93009) (assay: USP7 Biochemical IC50 Assay). Conditions: FLAG-USP7; enzyme and compound incubated 30 min at room temp; TAMRA labelled peptide-ubiquitin fluorescence polarisation substrate; read after 2 hr; read-out: IC50 range.
Description: The USP7 construct was PCR amplified and cloned into a pFLAG-CMV-6a vector (Sigma-Aldrich) with an N-terminal FLAG tag. HEK293T cells were transfected with FLAG-USP7 using TransIT-LT1 transfection reagent (Mirus) according to the manufacturer's instructions. Cells were harvested 40 hours after transfection. […] The resin was washed two times with low salt buffer plus protease inhibitors (complete mini, Roche) and phosphatase inhibitors (PhosSTOP mini, Roche) and one time with high salt buffer (20 mM Tris, pH 7.5, 500 mM NaCl, 0.5 mM EDTA, 5 mM beta-mercaptoethanol, protease inhibitors (complete mini, Roche) and phosphatase inhibitors (PhosSTOP mini, Roche). To elute the bound USP7, elution buffer (10 mM Tris, pH 7.5, 150 mM NaCl, 0.5 mM EDTA, 10% glycerol, 0.5% NP40, 5 mM beta-mercaptoethanol, 0.15 mg/ml 3×FLAG peptide (Sigma-Aldrich)) was added to the resin and incubated at 4° C. for 2.5 hours rotating. The resin was centrifuged at 4000 rpm for 30 seconds, and the supernatant containing purified FLAG-USP7 was removed and stored at −80° C.
USP7 Biochemical IC50 Assay
A typical 8-point dilution series would be 100, 30, 10, 3, 1, 0.3, 0.1, 0.03 μM final. […] Either 1 μl of 50% DMSO or diluted compound was added to the plate. USP7 was diluted in reaction buffer (20 mM Tris, pH 7.5, 100 mM NaCl, 0.05% Tween 20, 0.5 mg/ml BSA, 5 mM—beta mercaptoethanol) to the equivalent of 0.0025 μl/well and 10 μl of diluted USP7 was added to the compound. Enzyme and compound were incubated for 30 min at room temp. Reactions were initiated by the addition of 50 nM of TAMRA labelled peptide linked to ubiquitin via an iso-peptide bond as fluorescence polarisation substrate. Reactions were read immediately after addition of substrate and following a 2 hr incubation at room temperature. Readings were performed on a Pherastar Plus (BMG Labtech). λ Excitation 540 nm; λ Emission 590 nm.

Sequence of USP7 (Q93009 whole entry): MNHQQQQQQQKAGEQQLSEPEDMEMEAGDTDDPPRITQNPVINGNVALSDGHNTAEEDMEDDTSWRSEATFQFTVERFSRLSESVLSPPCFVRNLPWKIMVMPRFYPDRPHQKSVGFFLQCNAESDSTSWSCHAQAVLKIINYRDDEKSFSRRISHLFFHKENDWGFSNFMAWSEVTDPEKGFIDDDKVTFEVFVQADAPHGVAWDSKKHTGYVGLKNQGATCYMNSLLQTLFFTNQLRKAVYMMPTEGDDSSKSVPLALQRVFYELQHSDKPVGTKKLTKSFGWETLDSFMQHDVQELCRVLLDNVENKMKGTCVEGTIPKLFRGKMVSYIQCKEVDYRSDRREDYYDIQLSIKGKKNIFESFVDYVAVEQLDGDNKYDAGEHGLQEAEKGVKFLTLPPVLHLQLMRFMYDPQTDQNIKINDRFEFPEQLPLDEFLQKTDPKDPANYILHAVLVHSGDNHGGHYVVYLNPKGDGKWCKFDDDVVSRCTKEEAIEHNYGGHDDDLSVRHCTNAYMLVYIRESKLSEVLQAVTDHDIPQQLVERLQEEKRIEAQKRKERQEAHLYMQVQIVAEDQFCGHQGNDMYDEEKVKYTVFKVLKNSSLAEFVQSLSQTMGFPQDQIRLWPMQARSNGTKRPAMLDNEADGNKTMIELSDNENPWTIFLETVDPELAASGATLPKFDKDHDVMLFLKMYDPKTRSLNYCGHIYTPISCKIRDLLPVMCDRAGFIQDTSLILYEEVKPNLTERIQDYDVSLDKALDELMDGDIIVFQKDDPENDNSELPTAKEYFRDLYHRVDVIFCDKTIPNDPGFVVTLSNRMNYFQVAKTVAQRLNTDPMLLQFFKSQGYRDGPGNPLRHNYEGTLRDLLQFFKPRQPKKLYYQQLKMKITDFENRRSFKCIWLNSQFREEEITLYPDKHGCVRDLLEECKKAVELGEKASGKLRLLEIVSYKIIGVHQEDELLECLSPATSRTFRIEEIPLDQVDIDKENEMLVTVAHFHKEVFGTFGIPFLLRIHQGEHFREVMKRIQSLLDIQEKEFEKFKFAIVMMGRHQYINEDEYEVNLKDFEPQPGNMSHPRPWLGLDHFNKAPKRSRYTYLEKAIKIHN

IC50	Compound
< 10 µM	CCc1ccc(OC)c(-c2n[nH]c3c2CN(C#N)C3)c1 [Example 64, 3-(5-Ethyl-2-methoxyphenyl)-4,6-dihydropyrrolo[3,4-c]pyrazole-5(1H)-carbonitrile]
< 10 µM	COc1ccc(-c2n[nH]c3c2CN(C#N)C3)cn1 [Example 46, 3-(6-Methoxypyridin-3-yl)-4,6-dihydro-pyrrolo[3,4-c]pyrazole-5(1H)-carbonitrile]
10 to 30 µM	N#CN1Cc2[nH]nc(-c3cccc(OC(F)(F)F)c3)c2C1 [Example 40, 3-(3-(Trifluoro-methoxy)phenyl)-4,6-dihydropyrrolo[3,4-c]pyrazole-5(1H)-carbonitrile]
10 to 30 µM	N#CN1Cc2cnn(-c3cc(C(N)=O)n[nH]3)c2C1 [Example 28, 5-(5-Cyano-5,6-dihydropyrrolo[3,4-c]pyrazol-1(4H)-yl)-1H-pyrazole-3-carboxamide]
< 10 µM	N#CN1Cc2cnn(-c3cnc4ccccc4c3)c2C1 [Example 6, 1-(Quinolin-3-yl)-4,6-dihydropyrrolo[3,4-c]pyrazole-5(1H)-carbonitrile]
< 10 µM	N#CN1Cc2[nH]nc(-c3ccc(C(=O)NCc4ccccc4)cc3)c2C1 [Example 49, N-Benzyl-4-(5-cyano-1,4,5,6-tetrahydropyrrolo[3,4-c]pyrazol-3-yl)benzamide]
< 10 µM	CN1CCN(C(=O)c2ccc(-c3n[nH]c4c3CN(C#N)C4)cc2)CC1 [Example 51, 3-(4-(4-Methylpiperazine-1-carbonyl)phenyl)-4,6-dihydropyrrolo[3,4-c]pyrazole-5(1H)-carbonitrile]
< 10 µM	N#CN1Cc2[nH]nc(Nc3cc4ccccc4cn3)c2C1 [Example 31, 3-(Isoquinolin-3-ylamino)-4,6-dihydropyrrolo[3,4-c]pyrazole-5(1H)-carbonitrile]
< 10 µM	CN1CCN(c2ccc(-c3n[nH]c4c3CN(C#N)C4)cc2)CC1 [Example 66, 3-(4-(4-Methylpiperazin-1-yl)phenyl)-4,6-dihydro-pyrrolo[3,4-c]pyrazole-5(1H)-carbonitrile]
< 10 µM	CC(C)Oc1ccc(-c2n[nH]c3c2CN(C#N)C3)cn1 [Example 50, 3-(6-Isopropoxypyridin-3-yl)-4,6-dihydropyrrolo[3,4-c]pyrazole-5(1H)-carbonitrile]
10 to 30 µM	N#CN1Cc2[nH]nc(-c3ccnn3Cc3ccccc3)c2C1 [Example 53, 3-(1-Benzyl-1H-pyrazol-5-yl)-4,6-dihydropyrrolo[3,4-c]pyrazole-5(1H)-carbonitrile]
10 to 30 µM	CNC(=O)c1ccc(-n2ncc3c2CN(C#N)C3)cc1 [Example 15, 4-(5-Cyano-5,6-dihydropyrrolo[3,4-c]pyrazol-1(4H)-yl)-N-methylbenzamide]
< 10 µM	COc1ccc(C(C)C)cc1-c1nn(C)c2c1CN(C#N)C2 [Example 62, 3-(5-Isopropyl-2-methoxyphenyl)-1-methyl-4,6-dihydropyrrolo[3,4-c]pyrazole-5(1H)-carbonitrile]
10 to 30 µM	Cc1ccc(F)c(-c2c3c(nn2C)CN(C#N)C3)c1 [Example 61, 3-(2-fluoro-5-methylphenyl)-2-methyl-2,6-dihydropyrrolo[3,4-c]pyrazole-5(4H)-carbonitrile]
10 to 30 µM	CC(NC(=O)c1cccc(-n2ncc3c2CN(C#N)C3)c1)c1ccccc1 (stereo not drawn) [Example 12, 3-(5-Cyano-5,6-dihydropyrrolo[3,4-c]pyrazol-1(4H)-yl)-N-(1-phenylethyl)benzamide]
10 to 30 µM	COc1cccc(-n2ncc3c2CN(C#N)C3)c1 [Example 7, 1-(3-Methoxyphenyl)-4,6-dihydropyrrolo[3,4-c]pyrazole-5(1H)-carbonitrile]
< 10 µM	COc1cc(-n2cccn2)ccc1-c1n[nH]c2c1CN(C#N)C2 [Example 70, 3-(2-Methoxy-4-(1H-pyrazol-1-yl)phenyl)-4,6-dihydropyrrolo[3,4-c]pyrazole-5(4H)-carbonitrile]
< 10 µM	N#CN1Cc2[nH]nc(-c3ccc(C(=O)NCc4ccccc4)cc3F)c2C1 [Example 79, N-Benzyl-4-(5-cyano-1,4,5,6-tetrahydropyrrolo[3,4-c]pyrazol-3-yl)-3-fluorobenzamide]
10 to 30 µM	CC(=O)NCc1nn(-c2ccccc2)c2c1CN(C#N)C2 [Example 36, N-((5-Cyano-1-phenyl-1,4,5,6-tetrahydropyrrolo[3,4-c]pyrazol-3-yl)methyl)acetamide]
10 to 30 µM	N#CN1Cc2c(Nc3ccccn3)nn(-c3ccc(C(N)=O)cc3)c2C1 [Example 33, 4-(5-Cyano-3-(pyridin-2-ylamino)-5,6-dihydropyrrolo[3,4-c]pyrazol-1(4H)-yl)benzamide]

IC50	Compound
< 10 µM	CN1CCN(c2ccc(-c3n[nH]c4c3CN(C#N)C4)cn2)CC1 [Example 69, 3-(6-(4-Methylpiperazin-1-yl)pyridin-3-yl)-4,6-dihydropyrrolo[3,4-c]pyrazole-5(1H)-carbonitrile]
10 to 30 µM	N#CN1Cc2c(-c3ccccc3)nn(Cc3ccccc3)c2C1 [Example 24, 1-Benzyl-3-phenyl-4,6-dihydropyrrolo[3,4-c]pyrazole-5(1H)-carbonitrile]
< 10 µM	Cn1nc(-c2ccccc2)c2c1CN(C#N)C2 [Example 21, 1-Methyl-3-phenyl-4,6-dihydropyrrolo[3,4-c]pyrazole-5(1H)-carbonitrile]
< 10 µM	Cc1ccc(F)c(-c2nn(C)c3c2CN(C#N)C3)c1 [Example 60, 3-(2-fluoro-5-methylphenyl)-1-methyl-4,6-dihydropyrrolo[3,4-c]pyrazole-5(1H)-carbonitrile]
< 10 µM	COc1ccc(C(C)C)cc1-c1n[nH]c2c1CN(C#N)C2 [Example 26, 3-(5-Isopropyl-2-methoxyphenyl)-4,6-dihydropyrrolo[3,4-c]pyrazole-5(1H)-carbonitrile]
< 10 µM	CC(C)Oc1ccc(F)cc1-c1n[nH]c2c1CN(C#N)C2 [Example 48, 3-(5-Fluoro-2-isopropoxyphenyl)-4,6-dihydropyrrolo[3,4-c]pyrazole-5(1H)-carbonitrile]
< 10 µM	CC(C)n1nc(-c2ccccc2)c2c1CN(C#N)C2 [Example 23, 1-Isopropyl-3-phenyl-4,6-dihydropyrrolo[3,4-c]pyrazole-5(1H)-carbonitrile]
< 10 µM	N#CN1Cc2cnn(-c3cnn(-c4ccccc4)c3)c2C1 [Example 8, 1-(1-Phenyl-1H-pyrazol-4-yl)-4,6-dihydropyrrolo[3,4-c]pyrazole-5(1H)-carbonitrile]
< 10 µM	N#CN1Cc2cnn(-c3cccc(C(=O)NCc4ccccn4)c3)c2C1 [Example 13, 3-(5-Cyano-5,6-dihydropyrrolo[3,4-c]pyrazol-1(4H)-yl)-N-(pyridin-2-ylmethyl)benzamide]
< 10 µM	CN(C)S(=O)(=O)c1cccc(-c2n[nH]c3c2CN(C#N)C3)c1 [Example 47, 3-(5-Cyano-1,4,5,6-tetrahydropyrrolo[3,4-c]pyrazol-3-yl)-N,N-dimethylbenzene-sulfonamide]
< 10 µM	CN1CCC(n2cc(-c3n[nH]c4c3CN(C#N)C4)cn2)CC1 [Example 68, 3-(1-(1-Methylpiperidin-4-yl)-1H-pyrazol-4-yl)-4,6-dihydropyrrolo[3,4-c]pyrazole-5(1H)-carbonitrile]
< 10 µM	Cc1nn(-c2ccc(C(N)=O)cc2)c2c1CN(C#N)C2 [Example 16, 4-(5-Cyano-3-methyl-5,6-dihydropyrrolo[3,4-c]pyrazol-1(4H)-yl)benzamide]
< 10 µM	N#CN1Cc2cnn(-c3ccc(F)cc3)c2C1 [Example 3, 1-(4-Fluorophenyl)-4,6-dihydropyrrolo[3,4-c]pyrazole-5(1H)-carbonitrile]
< 10 µM	N#CN1Cc2[nH]nc(-c3ccccc3)c2C1 [Example 29, 3-Phenyl-4,6-dihydropyrrolo[3,4-c]pyrazole-5(1H)-carbonitrile]
< 10 µM	Cn1ncc2cc(-c3n[nH]c4c3CN(C#N)C4)ccc21 [Example 52, 3-(1-Methyl-1H-indazol-5-yl)-4,6-dihydropyrrolo[3,4-c]pyrazole-5(1H)-carbonitrile]
< 10 µM	CNC(=O)c1ccc(-c2n[nH]c3c2CN(C#N)C3)cn1 [Example 45, 5-(5-Cyano-1,4,5,6-tetrahydropyrrolo[3,4-c]pyrazol-3-yl)-N-methylpicolinamide]
10 to 30 µM	N#CN1Cc2cnn(-c3ccccc3)c2C1 [Example 2, 1-Phenyl-4,6-dihydropyrrolo[3,4-c]pyrazole-5(1H)-carbonitrile]
10 to 30 µM	COc1ccc(C(C)C)cc1-c1nn(Cc2ccccc2)c2c1CN(C#N)C2 [Example 25, 1-Benzyl-3-(5-isopropyl-2-methoxyphenyl)-4,6-dihydropyrrolo[3,4-c]pyrazole-5(1H)-carbonitrile]
< 10 µM	N#CN1Cc2[nH]nc(-c3ccccc3F)c2C1 [Example 58, 3-(2-Fluorophenyl)-4,6-dihydropyrrolo[3,4-c]pyrazole-5(1H)-carbonitrile]
